Results on eight compounds are retold here after patent US11655238B2 (priority 2018, dated 2023).

In brackets after ≈: the same amount, converted by molar mass. A value given as a limit tells only on which side of the number the result lay.

Common to all, as to assay type: cell-based
Assay [1] deals with Mycobacterium tuberculosis H37Ra strain. In words: microbe, parasite or virus in culture. The conditions noted are these: for MIC: Mycobacterium tuberculosis, H37RA, 168 h, read-out: MIC (μg/mL) Mycobacterium tuberculosis H37Ra.
Assay [2] has as its system Mycobacterium bovis BCG strain. In words: microbe, parasite or virus in culture. The conditions noted are these: for MIC: Mycobacterium tuberculosis variant bovis BCG, BCG, 168 h, read-out: MIC (μg/mL) Mycobacterium bovis BCG, BCG strain, 7H9 medium, 37° C., 168 hours, resazurin; for inhibitory effect on BCG strain (summary of Table 2): in words. A general note: Resazurin is reduced to fluorescent resorufin, in cell work by metabolically active cells.

Assay [3] has as its system Mycobacterium smegmatis strain (mc2155). Nature of the assay: Resazurin microplate MIC on Mycobacterium smegmatis. The conditions noted are these: for MIC: Mycolicibacterium smegmatis, MC2155, 48 h, mc2155, 7H9 medium, 37° C., 48 hours, resazurin, read-out: MIC (μg/mL) Mycobacterium smegmatis.

For `Cc1ccc(-n2nc(C(=O)NCCNC3C4CC5CC(C4)CC3C5)c(C)c2-c2ccc(Cl)cc2)c(C)c1` (stereo not drawn) [Compound 77, N-(2-(((1r,3r,5r,7r)-adamantan-2-yl)amino)ethyl-5-(4-chloro-phenyl)-1-(2,4-dimethylphenyl)-4-methyl-1H-pyrazole-3-carboxamide], in assay [1], the “inhibitory effect on H37Ra strain (summary of Table 2)” value (“inhibitory effect on H37Ra strain” below) is reported as “good inhibitory effects” and the MIC came out at 2.59 µg/mL (≈ 5.01 µM). Besides, in assay [2], the MIC came out at 5.18 µg/mL (≈ 10 µM) and the “inhibitory effect on BCG strain (summary of Table 2)” value (shortened to “inhibitory effect on BCG strain”) is given as “good inhibitory effects”. Further, in assay [3], the “inhibitory effect on smegmatis strain (summary of Table 2)” value (shortened to “inhibitory effect on smegmatis strain”) is “good inhibitory effects” and the MIC is 10.4 µg/mL (≈ 20 µM).

As for `Cc1c(C(=O)NCCNC23CC4CC(CC(C4)C2)C3)nn(-c2ccc(Cl)cc2Cl)c1-c1ccc(Cl)cc1` [Compound 163, N-(2-(((3s,5s,7s)-adamantan-1-yl)amino)ethyl)-5-(4-chloro-phenyl)-1-(2,4-dichloro-phenyl)-4-methyl-1H-pyrazole-3-carboxamide], in assay [1], the “inhibitory effect on H37Ra strain” value is reported as “good inhibitory effects” and the MIC turned out to be 3.66 µg/mL (≈ 6.56 µM). In assay [2], the MIC is 3.66 µg/mL (≈ 6.56 µM) and the “inhibitory effect on BCG strain” value is given as “good inhibitory effects”. Besides, in assay [3], the “inhibitory effect on smegmatis strain” value was “good inhibitory effects” and the MIC was determined as 14.6 µg/mL (≈ 26.2 µM).

For the compound `Cc1c(CNC(=O)NC23CC4CC(CC(C4)C2)C3)nn(-c2ccc(Cl)cc2Cl)c1-c1ccc(Cl)cc1` [Compound 10, 1-((3s,5s,7s)-adamantan-1-yl)-3-((5-(4-chlorophenyl)-1-(2,4-dichlorophenyl)-4-methyl-1H-pyrazol-3-yl)methyl)urea], the values for the MIC in assay [1], in assay [2] and in assay [3] were greater than 171 µg/mL, greater than 171 µg/mL and 171 µg/mL (≈ 314 µM), respectively.

Regarding `Cc1c(CNCCCNC2C3CC4CC(C3)CC2C4)nn(-c2ccc(Cl)cc2Cl)c1-c1ccc(Cl)cc1` (stereo not drawn) [Compound 164, N1-((1r,3r,5r,7r)-adamantan-2-yl)-N3-((5-(4-chloro-phenyl)-1-(2,4-dichloro-phenyl)-4-methyl-1H-pyrazol-3-yl)methyl)propane-1,3-diamine], the MIC was 3.24 µg/mL (≈ 5.81 µM) in assay [1], 3.24 µg/mL (≈ 5.81 µM) in assay [2] and greater than 207 µg/mL in assay [3].

For the compound `Cc1c(C(=O)NCCNC2C3CC4CC(C3)CC2C4)nn(-c2ccc(F)cc2F)c1-c1ccc(Cl)cc1` (stereo not drawn) [Compound 76, N-(2-(((1r,3r,5r,7r)-adamantan-2-yl)amino)ethyl)-5-(4-chloro-phenyl)-1-(2,4-difluorophenyl)-4-methyl-1H-pyrazole-3-carboxamide], in assay [1], the “inhibitory effect on H37Ra strain” value was “good inhibitory effects” and the MIC was determined as 1.83 µg/mL (≈ 3.49 µM). For the same compound, in assay [2], the MIC was 3.66 µg/mL (≈ 6.97 µM) and the “inhibitory effect on BCG strain” value is given as “good inhibitory effects”. Further, in assay [3], the “inhibitory effect on smegmatis strain” value was “good inhibitory effects” and the MIC came to 7.32 µg/mL (≈ 13.9 µM).

Consider `Cc1c(CNC(=O)NCCC23CC4CC(CC(C4)C2)C3)nn(-c2ccc(Cl)cc2Cl)c1-c1ccc(Cl)cc1` [Compound 12, 1-(2-((3r,5r,7r)-adamantan-1-yl)ethyl)-3-((5-(4-chloro-phenyl)-1-(2,4-dichlorophenyl)-4-methyl-1H-pyrazol-3-yl)-methyl)urea], for which the MIC is 122 µg/mL (≈ 213 µM) in assay [1], greater than 122 µg/mL in assay [2] and 15.2 µg/mL (≈ 26.6 µM) in assay [3].

For `Cc1c(CNCCNC2C3CC4CC(C3)CC2C4)nn(-c2ccc(Cl)cc2Cl)c1-c1ccc(Cl)cc1` (stereo not drawn) [Compound 166, N1-((1r,3r,5r,7r)-adamantan-2-yl)-N2-((5-(4-chlorophenyl)-1-(2,4-dichlorophenyl)-4-methyl-1H-pyrazol-3-yl)-methyl)ethane-1,2-diamine], the MIC in assay [1] turned out to be 3.81 µg/mL (≈ 7 µM); in assay [2] it was 7.62 µg/mL (≈ 14 µM); in assay [3] it was 7.62 µg/mL (≈ 14 µM).

`Cc1c(C(=O)OC2CC3CCC2(C)C3(C)C)nn(-c2ccc(Cl)cc2Cl)c1-c1ccc(Cl)cc1` (stereo not drawn) [Compound 171, 1,7,7-trimethylbicyclo[2.2.1]-heptan-2-yl 5-(4-chlorophenyl)-1-(2,4-dichlorophenyl)-4-methyl-1H-pyrazole-3-carbox-ylate]: the MIC is greater than 200 µg/mL in assay [1], greater than 200 µg/mL in assay [2] and 200 µg/mL (≈ 386 µM) in assay [3].
